Here are results for 30 compounds from patent US8076338B2, “Kinase modulators and methods of use” (Exelixis, Inc., priority 2004, dated 2011).

Like-named read-outs stand apart in the source and are kept apart here.

The target of one assay is p70S6K (Homo sapiens, UniProt P23443). The assay is described as follows: Luciferase-coupled chemiluminescence kinase assay (ATP consumption). It is filed as biochemical. An outline of the steps:
(§1)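 Enzyme at 2.5-5 nM was preincubated 30 min at room temperature with compound in Tris pH 7.5, MgCl2, TX-100, DTT, then reacted with ATP for 3 h at ambient temperature. Remaining ATP was quantified by luciferase-luciferin chemiluminescence, with consumption kept at 25-60%; […].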

For the next assay, the target named is AktK (Homo sapiens, UniProt P31749). The assay is described as above. The assay is classed as biochemical. The settings on record: read-out: AKT-1 IC50. The essentials:
as §1

Sequence of AktK (P31749 whole entry): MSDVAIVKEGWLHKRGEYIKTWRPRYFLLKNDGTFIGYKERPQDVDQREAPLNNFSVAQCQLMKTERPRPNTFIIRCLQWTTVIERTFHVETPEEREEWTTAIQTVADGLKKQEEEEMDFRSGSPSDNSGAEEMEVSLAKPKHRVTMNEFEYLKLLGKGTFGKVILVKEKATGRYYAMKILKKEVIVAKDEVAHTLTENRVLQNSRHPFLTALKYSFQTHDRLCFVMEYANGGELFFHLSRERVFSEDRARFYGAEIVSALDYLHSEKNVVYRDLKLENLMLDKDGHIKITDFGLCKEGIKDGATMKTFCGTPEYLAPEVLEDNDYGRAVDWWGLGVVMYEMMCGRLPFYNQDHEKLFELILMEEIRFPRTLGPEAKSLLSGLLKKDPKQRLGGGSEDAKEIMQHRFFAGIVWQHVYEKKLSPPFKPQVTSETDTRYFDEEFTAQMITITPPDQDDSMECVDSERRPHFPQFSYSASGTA
Sequence of p70S6K (P23443 whole entry): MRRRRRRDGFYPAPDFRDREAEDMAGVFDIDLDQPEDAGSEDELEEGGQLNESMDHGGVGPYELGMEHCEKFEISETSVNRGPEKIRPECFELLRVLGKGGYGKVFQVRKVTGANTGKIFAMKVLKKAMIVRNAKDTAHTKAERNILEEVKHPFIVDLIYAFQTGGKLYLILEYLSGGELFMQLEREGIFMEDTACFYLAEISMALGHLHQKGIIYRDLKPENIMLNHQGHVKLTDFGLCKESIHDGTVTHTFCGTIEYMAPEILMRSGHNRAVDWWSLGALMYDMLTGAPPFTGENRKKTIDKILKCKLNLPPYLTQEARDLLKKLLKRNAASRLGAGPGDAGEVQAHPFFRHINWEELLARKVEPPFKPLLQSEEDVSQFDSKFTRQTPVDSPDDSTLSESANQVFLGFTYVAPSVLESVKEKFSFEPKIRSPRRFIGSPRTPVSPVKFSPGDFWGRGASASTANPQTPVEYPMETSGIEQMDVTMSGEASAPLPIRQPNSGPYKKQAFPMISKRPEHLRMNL

With `CCc1n[nH]c2ncnc(N3CCN(c4cccc(Cl)c4)C(C(=O)OC)C3)c12` (stereo not drawn) [Entry 346, methyl 1-(3-chlorophenyl)-4-(3-ethyl-1H-pyrazolo[3,4-d]pyrimidin-4-yl)piperazine-2-carboxylate], the half-maximal inhibitory concentration (IC50) (as a rule, the concentration that inhibits the measured activity by half) was 1 to 10 µM against p70S6K and no less than 10 µM at AktK.
Take `CCc1n[nH]c2ncnc(N3CCN(c4ccc(OCCN5CCCCC5)c(Cl)c4)CC3)c12` [Entry 350, 4-(4-{3-chloro-4-[(2-piperidin-1-ylethyl)oxy]phe-nyl}piperazin-1-yl)-3-ethyl-1H-pyrazolo[3,4-d]pyrimidine]: the half-maximal inhibitory concentration (IC50) against p70S6K is 1 to 10 µM; at AktK it was no less than 10 µM.
Regarding `Cc1cccc(COc2cccc(N3CCN(c4ncnc5[nH]nc(Br)c45)CC3)c2)c1` [Entry 141, 3-bromo-4-[4-(3-{[(3-methylphenyl)methyl]oxy}phenyl)piperazin-1-yl]-1H-pyrazolo[3,4-d]pyrimidine], the 50% inhibitory concentration (IC50) is 0.1 to 1 µM against p70S6K (Table 1, class symbols per key) and no less than 10 µM on AktK (Table 1, class symbols per key).
The matching figures for `Cc1ccc(Cl)cc1N1CCN(c2ncnc3[nH]nc(Br)c23)CC1=O` [Entry 183, 4-(3-bromo-1H-pyrazolo[3,4-d]pyrimidin-4-yl)-1-(5-chloro-2-methylphenyl)piperazin-2-one]: less than 0.1 µM and no less than 10 µM.
For the compound `CCN(CC)CCCc1n[nH]c2ncnc(N3CCN(c4cc(Cl)ccc4C)CC3)c12` [Entry 399, 3-{4-[4-(5-chloro-2-methylphenyl)piperazin-1-yl]-1H-pyrazolo[3,4-d]pyrimidin-3-yl}-N,N-diethylpropan-1-amine], the half-inhibitory concentration (IC50) on p70S6K and at AktK was 1 to 10 µM throughout.
As for `Fc1ccc(F)c(N2CCN(c3ncnc4[nH]nc(Br)c34)CC2)c1` [Entry 131, 3-bromo-4-[4-(2,5-difluorophenyl)piperazin-1-yl]-1H-pyrazolo[3,4-d]pyrimidine], the 50% inhibitory concentration (IC50) is less than 0.1 µM at p70S6K (Table 1, class symbols per key) and no less than 10 µM on AktK (Table 1, class symbols per key).
For `Cc1c(NCCN(C)C)cc(OCC(F)(CF)CF)cc1N1CCN(c2ncnc3[nH]nc(Br)c23)CC1` [Entry 229, N′-(3-[4-(3-bromo-1H-pyrazolo[3,4-d]pyrimidin-4-yl)piperazin-1-yl]-5-{[2,3-difluoro-2-(fluorometh-yl)propyl]oxy}-2-methylphenyl)-N,N-dimethylethane-1,2-diamine] the same measures were less than 0.1 µM and less than 0.1 µM.
With `Cc1ccc(C(=O)NCc2ccccc2)cc1N1CCN(c2ncnc3[nH]nc(Br)c23)C[C@@H]1C` [Entry 178, 3-[(2S)-4-(3-bromo-1H-pyrazolo[3,4-d]pyrimidin-4-yl)-2-methylpiperazin-1-yl]-4-methyl-N-(phenylmethyl)benzamide], the concentration for half-maximal inhibition (IC50) on p70S6K (Table 1, class symbols per key) was less than 0.1 µM; on AktK (Table 1, class symbols per key), 1 to 10 µM.
On to `COC(=O)c1cc(NCCN2CCCC2)c(C)c(N2CCN(c3ncnc4[nH]nc(Br)c34)CC2)c1` [Entry 190, methyl 3-[4-(3-bromo-1H-pyrazolo[3,4-d]pyrimidin-4-yl)piperazin-1-yl]-4-methyl-5-[(2-pyrrolidin-1-ylethyl)amino]benzoate], for which the 50% inhibitory concentration (IC50) at p70S6K (Table 1, class symbols per key) was less than 0.1 µM; at AktK (Table 1, class symbols per key) it was less than 0.1 µM.
With `Cc1ccc(-c2ccccc2OCCN2C(=O)CCC2=O)cc1N1CCN(c2ncnc3[nH]nc(Br)c23)CC1` [Entry 281, 1-[2-({3′-[4-(3-bromo-1H-pyrazolo[3,4-d]pyrimidin-4-yl)piperazin-1-yl]-4′-methylbiphenyl-2-yl}oxy)ethyl]pyrrolidine-2,5-dione], the half-inhibitory concentration (IC50) at p70S6K (Table 1, class symbols per key) is less than 0.1 µM; at AktK (Table 1, class symbols per key), less than 0.1 µM.
Regarding `Cc1ccc(C(=O)Nc2ccccc2)cc1N1CCN(c2ncnc3[nH]nc(Br)c23)CC1=O` [Entry 199, 3-[4-(3-bromo-1H-pyrazolo[3,4-d]pyrimidin-4-yl)-2-oxopiperazin-1-yl]-4-methyl-N-phenylbenzamide], the concentration for half-maximal inhibition (IC50) on p70S6K (Table 1, class symbols per key) is less than 0.1 µM; on AktK (Table 1, class symbols per key), 1 to 10 µM.
On to `Fc1ccccc1N1CCN(c2ncnc3[nH]ccc23)CC1` [Entry 313, 4-[4-(2-fluorophenyl)piperazin-1-yl]-7H-pyrrolo[2,3-d]pyrimidine], for which the IC50 on p70S6K is 0.1 to 1 µM; at AktK, no less than 10 µM.
For the compound `CCc1n[nH]c2ncnc(N3CCN(c4cc(C(F)(F)F)ccc4Cl)CC3)c12` [Entry 171, 4-{4-[2-chloro-5-(trifluoromethyl)phenyl]piperazin-1-yl}-3-ethyl-1H-pyrazolo[3,4-d]pyrimidine], the half-inhibitory concentration (IC50) on p70S6K (Table 1, class symbols per key) was less than 0.1 µM; on AktK (Table 1, class symbols per key), 1 to 10 µM.
As for `Cc1c(OCCN2CCN(C)CC2)cc(Cl)cc1N1CCN(c2ncnc3[nH]nc(C(F)(F)F)c23)CC1` [Entry 73, 4-[4-(5-chloro-2-methyl-3-{[2-(4-methylpiperazin-1-yl)ethyl]oxy}phenyl)piperazin-1-yl]-3-(trifluoromethyl)-1H-pyrazolo[3,4-d]pyrimidine], the concentration for half-maximal inhibition (IC50) against p70S6K (Table 1, class symbols per key) was less than 0.1 µM; at AktK (Table 1, class symbols per key) it was 0.1 to 1 µM.
As for `Clc1ccc(N2CCN(c3ncnc4[nH]cnc34)CC2)cc1` [Entry 308, 6-[4-(4-chlorophenyl)piperazin-1-yl]-9H-purine], the 50% inhibitory concentration (IC50) on p70S6K is 1 to 10 µM; on AktK, no less than 10 µM.
Take `CCc1n[nH]c2ncnc(N3CCN(c4cccc(Cl)c4)C(CO)C3)c12` (stereo not drawn) [Entry 379, [1-(3-chlorophenyl)-4-(3-ethyl-1H-pyrazolo[3,4-d]pyrimidin-4-yl)piperazin-2-yl]methanol]: the IC50 on p70S6K is less than 0.1 µM; at AktK, 1 to 10 µM.
For the compound `CCc1n[nH]c2ncnc(N3CCN(c4cccc(OC)c4C)CC3)c12` [Entry 145, 3-ethyl-4-{4-[2-methyl-3-(methyloxy)phenyl]piper-azin-1-yl}-1H-pyrazolo[3,4-d]pyrimidine], the IC50 against p70S6K (Table 1, class symbols per key) was less than 0.1 µM; on AktK (Table 1, class symbols per key) it was no less than 10 µM.
The matching figures for `Cc1ccc(Cl)cc1N1CCN(c2ncnc3[nH]nc(Br)c23)C[C@@H]1C` [Entry 164, 3-bromo-4-[(3S)-4-(5-chloro-2-methylphenyl)-3-methylpiperazin-1-yl]-1H-pyrazolo[3,4-d]pyrimidine]: less than 0.1 µM and 0.1 to 1 µM.
The matching figures for “3-bromo-4-(4-{4-methyl-2′-[(2-pyrrolidin-1-ylethyl)oxy]biphenyl-3-yl}piperazin-1-yl)-1H-pyrazolo[3,4-d]pyrimidine [Entry 269]”: less than 0.1 µM and less than 0.1 µM.
`Fc1ccc(N2CCN(c3ncnc4[nH]cnc34)CC2)cc1` [Entry 309, 6-[4-(4-fluorophenyl)piperazin-1-yl]-9H-purine]: the IC50 against p70S6K is 1 to 10 µM; on AktK, no less than 10 µM.
In the case of `Cc1c(CCCN2CCCC2)cc(Cl)cc1N1CCN(c2ncnc3[nH]nc(C(F)(F)F)c23)CC1` [Entry 61, 4-{4-[5-chloro-2-methyl-3-(3-pyrrolidin-1-ylpropyl)phenyl]piperazin-1-yl}-3-(trifluoromethyl)-1H-pyrazolo[3,4-d]pyrimidine], the IC50 on p70S6K (Table 1, class symbols per key) is less than 0.1 µM; on AktK (Table 1, class symbols per key), less than 0.1 µM.
As to `CCc1n[nH]c2ncnc(N3CCN(c4cc(C(=O)Nc5ccccc5)cc(Br)c4C)CC3)c12` [Entry 192, 3-bromo-5-[4-(3-ethyl-1H-pyrazolo[3,4-d]pyrimidin-4-yl)piperazin-1-yl]-4-methyl-N-phenylbenzamide], the half-maximal inhibitory concentration (IC50) against p70S6K (Table 1, class symbols per key) is less than 0.1 µM; at AktK (Table 1, class symbols per key), 0.1 to 1 µM.
For the compound `Cc1ccc(N2CCN(c3ncnc4[nH]nc(Br)c34)CC2)cc1NCCN1CCCC1` [Entry 57, 5-[4-(3-bromo-1H-pyrazolo[3,4-d]pyrimidin-4-yl)piperazin-1-yl]-2-methyl-N-(2-pyrrolidin-1-ylethyl)aniline], the IC50 at p70S6K (Table 1, class symbols per key) was in the range of 0.1 to 1 µM; on AktK (Table 1, class symbols per key), 1 to 10 µM.
For “2-[4-(3-bromo-1H-pyrazolo[3,4-d]pyrimidin-4-yl)piperazin-1-yl]-N,N-diethylpyrimidin-4-amine [Entry 140]” the same measures were 0.1 to 1 µM and 1 to 10 µM.
Turning to `Cc1ccc(Cl)cc1N1CCN(c2ncnc3[nH]nc(CCC(=O)O)c23)CC1` [Entry 370, 3-{4-[4-(5-chloro-2-methylphenyl)piperazin-1-yl]-1H-pyrazolo[3,4-d]pyrimidin-3-yl}propanoic acid], the values for the IC50 at p70S6K and on AktK were less than 0.1 µM and 1 to 10 µM, respectively.
For the compound `Cc1c(NCCN2CCCC2)cc(C#Cc2ccccc2)cc1N1CCN(c2ncnc3[nH]nc(Br)c23)CC1` [Entry 235, 3-[4-(3-bromo-1H-pyrazolo[3,4-d]pyrimidin-4-yl)piperazin-1-yl]-2-methyl-5-(phenylethynyl)-N-(2-pyrrolidin-1-ylethyl)aniline], the IC50 against p70S6K (Table 1, class symbols per key) is less than 0.1 µM; on AktK (Table 1, class symbols per key), 0.1 to 1 µM.
For the compound “4-[4-(5-chloro-2-methylphenyl)piperazin-1-yl]-3-(3-pyrrolidin-1-ylpropyl)-1H-pyrazolo[3,4-d]pyrimidine [Entry 400]”, the IC50 against p70S6K and at AktK was 1 to 10 µM in each case.
In the case of `Cc1c(NCCN2CCCC2)cc(CCc2ccccc2)cc1N1CCN(c2ncnc3[nH]nc(Br)c23)CC1` [Entry 247, 3-[4-(3-bromo-1H-pyrazolo[3,4-d]pyrimidin-4-yl)piperazin-1-yl]-2-methyl-5-(2-phenylethyl)-N-(2-pyrrolidin-1-ylethyl)aniline], the 50% inhibitory concentration (IC50) against p70S6K (Table 1, class symbols per key) is less than 0.1 µM; on AktK (Table 1, class symbols per key), less than 0.1 µM.
Regarding `Cc1c(Br)cc(C(=O)Nc2ccccc2)cc1N1CCN(c2ncnc3[nH]nc(Br)c23)CC1` [Entry 191, 3-bromo-5-[4-(3-bromo-1H-pyrazolo[3,4-d]pyrimidin-4-yl)piperazin-1-yl]-4-methyl-N-phenylbenzamide], the IC50 was less than 0.1 µM against p70S6K (Table 1, class symbols per key) and 0.1 to 1 µM at AktK (Table 1, class symbols per key).
For `Cc1c(NCCN2CCCC2)cc(C(=O)NC(C)(C)C)cc1N1CCN(c2ncnc3[nH]nc(Br)c23)CC1` [Entry 214, 3-[4-(3-bromo-1H-pyrazolo[3,4-d]pyrimidin-4-yl)piperazin-1-yl]-N-(1,1-dimethylethyl)-4-methyl-5-[(2-pyrrolidin-1-ylethyl)amino]benzamide] the same measures were less than 0.1 µM and less than 0.1 µM.
